Patent US12304910B2, “Janus kinase (JAK) family inhibitor, preparation of same, and applications thereof” (JIANGSU VCARE PHARMATECH CO., LTD., priority 2019, dated 2025)
pIC50: −log10 of the molar value.

How the values were obtained:
[1] = target: JAK1 (Homo sapiens, UniProt P23458); assay: Kinase activity test (γ33P-ATP isotopic method), JAK1; format: biochemical; settings: for pIC50: 33P-ATP 10 μM, 2 h reaction; for activity in inhibiting the JAK1 kinase compared with Tofacitinib (in words): conclusion from Table 1
Method: (§1) This experiment adopted a γ^33p-ATP isotopic test method to test the inhibitory effect of a compound on kinases JAK1, JAK2, JAK3 and TYK2, and obtained a half inhibitory concentration IC50 of the compound for inhibiting activity of the kinase.
(§2) 20 mM 4-hydroxyethylpiperazine ethanesulfonic acid buffer (Hepes, pH 7.5), 10 mM magnesium chloride (MgCl2), 1 mM ethylene glycol diethyl ether diamine tetraacetic acid (EGTA), 0.02% dodecyl polyethylene glycol ether (Brij35), 0.02 mg/ml bovine serum albumin (BSA), 0.1 mM sodium vanadate (Na3VO4), 2 mM dithiothreitol (DTT), and 1% dimethylsulfoxide (DMSO).
(§3) A compound is dissolved with 100% DMSO to a specific concentration, and then subjected to gradient dilution by an automatic sampling device to obtain the samples to be tested with different concentrations (DMSO solutions).
(§4) 3.1 diluting the reaction substrate with the basic reaction buffer;
(§5) 3.2 adding the kinase into the substrate solution, and gently mixing well;
(§6) 3.3 adding, by the automatic sampling system, the 100% DMSO diluted compounds with different concentrations into the kinase solution, and incubating for 20 min at room temperature; and
(§7) 3.4 adding ^33p-ATP (10 μM, 10 μCi/μl) at room temperature to initiate the kinase reaction for a duration of 2 h.
(§8) The unreacted ATP and the reaction-generated […] in the reaction were removed by an ion exchange filtering system, and then the amount of radioactivity of ^33p isotope in the substrate was detected.
(§9) According to the amount of radioactivity, the kinase activities in the systems added with the inhibitors of different concentrations were calculated, to obtain the inhibitors' effects of the compounds of different concentrations on the kinase activity; and fitting was performed with graphpad prism to obtain the inhibitory IC50 values of the compounds.

[2] = target: JAK2 (Homo sapiens, UniProt O60674); assay: Kinase activity test (γ33P-ATP isotopic method), JAK2; format: biochemical; settings: 33P-ATP 10 μM, 2 h reaction
Method: as §1, §2, §3, §4, §5, §6, §7, §8, §9

[3] = target: T1, JAK3 (Homo sapiens, UniProt P52333); assay: Kinase activity test (γ33P-ATP isotopic method), JAK3; format: biochemical; settings: 33P-ATP 10 μM, 2 h reaction
T1 sequence (P52333 1-1124): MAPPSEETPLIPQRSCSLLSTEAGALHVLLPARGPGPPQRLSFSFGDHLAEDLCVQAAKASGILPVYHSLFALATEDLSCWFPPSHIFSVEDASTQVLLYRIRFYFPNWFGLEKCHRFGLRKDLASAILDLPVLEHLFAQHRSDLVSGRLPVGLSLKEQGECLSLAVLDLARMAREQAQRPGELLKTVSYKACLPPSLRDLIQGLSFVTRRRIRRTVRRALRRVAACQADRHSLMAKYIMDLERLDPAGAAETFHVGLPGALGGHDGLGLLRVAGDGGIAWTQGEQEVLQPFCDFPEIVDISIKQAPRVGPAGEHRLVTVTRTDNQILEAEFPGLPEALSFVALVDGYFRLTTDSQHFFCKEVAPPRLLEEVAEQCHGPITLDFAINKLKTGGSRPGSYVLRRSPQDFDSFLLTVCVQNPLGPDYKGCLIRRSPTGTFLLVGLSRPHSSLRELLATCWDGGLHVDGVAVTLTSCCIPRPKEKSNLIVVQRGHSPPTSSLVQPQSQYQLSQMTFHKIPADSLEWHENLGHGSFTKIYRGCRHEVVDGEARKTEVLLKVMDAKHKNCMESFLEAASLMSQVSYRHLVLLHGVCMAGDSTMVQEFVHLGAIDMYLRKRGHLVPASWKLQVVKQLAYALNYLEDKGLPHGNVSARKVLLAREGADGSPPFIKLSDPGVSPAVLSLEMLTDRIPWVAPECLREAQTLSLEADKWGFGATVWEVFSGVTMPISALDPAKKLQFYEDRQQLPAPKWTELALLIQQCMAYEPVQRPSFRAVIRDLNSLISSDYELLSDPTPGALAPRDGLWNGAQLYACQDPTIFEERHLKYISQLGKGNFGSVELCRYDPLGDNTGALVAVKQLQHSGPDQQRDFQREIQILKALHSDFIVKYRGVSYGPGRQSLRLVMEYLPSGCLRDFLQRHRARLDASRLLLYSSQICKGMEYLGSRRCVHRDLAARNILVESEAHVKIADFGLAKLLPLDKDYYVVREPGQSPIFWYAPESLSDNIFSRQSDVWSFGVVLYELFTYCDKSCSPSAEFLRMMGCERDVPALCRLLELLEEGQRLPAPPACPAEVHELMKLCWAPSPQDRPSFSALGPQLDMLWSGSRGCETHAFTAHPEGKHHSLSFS
Method: as §1, §2, §3, §4, §5, §6, §7, §8, §9

[4] = tested on: DNBS induced rat Crohn's disease model; assay: Therapeutic activity in DNBS induced rat Crohn's disease model; format: in vivo; set-up: rat colon ulcer area: unit not given beside the values; settings: G3, 10 mg/kg-QD, 7 days, mean±SD
Method: Male wistar rats of 4-5 weeks old were adaptively fed for 5 days, and two days before the experiment, randomly divided into 6 groups:
Blank control group: G1 (Normal), 4 normal rats were selected and only given with 30% ethanol, 10 mL/kg.
0.5 mL of 50 mg/mL DNBS (DNBS dissolved in 30% ethanol) was injected into the colon of rats to induce enteritis in rats, for 40 rats in total. Eight of them were selected as model group G2 (Model), and the remaining 32 rats were administrated.
Administration group: the rats with DNBS induced enteritis were administered with ABT494 and the compound of Example 2 respectively and divided into G3-G6 groups, 8 rats/group. G3: ABT494, 10 mg/kg-QD; G4: Example 2, 0.3 mg/kg-BID; G5: Example 2, 1 mg/kg-BID; and G6: Example 2, 3 mg/kg-BID.
The rats were fasted, but fed with water for 48 hours, and a 5% glucose salt solution (10 mL/kg) was used as an energy supplement for experimental animals during the fasting period, once a day. On the day of experimental modeling, the fasting rats were anesthetized with Choutet (25 mg/kg), and then 0.5 mL of 50 mg/mL DNBS was injected from the anus to left colic flexure of the rat (about 8 cm to the anus) to induce rat enteritis. All rats were kept in a […] for 15 min until they were awaken, to prevent the backflow of DNBS. From the day of the experimental modeling, medication was given for 7 days.
After the DNBS modeling, the weights of the animals were measured and recorded every day, the daily activities of the animals were observed, and the abnormalities were recorded. During the experiment, the stool state of the rats was scored every day. On day 7, the rats were anesthetized with isoflurane (3-5%), blood was taken from the orbit, and the serum was separated and stored at −80° C. All animals were euthanized by cervical vertebra dis location after suffocation from excessive CO2 inhalation. The abdomen was cut, the colorectum was take out and longitudinally dissected, and the stool trait in the colorectum was scored. The colorectum was thoroughly rinsed with ice-cold PBS and then the ulcer surface was observed. The length and weight and ulcer area of the colon were recorded, the weight-length ratio (colon weight (g)/length (cm) ratio×100) was calculated, and the overall picture was taken. All intestinal tissue was longitudinally divided into two parts, where one part was fixed with 4% neutral […] and embedded with paraffin, and the rest colon sample was cryopreserved at −80° C.
Excel and Graphapad software were used for statistical analysis, and the results were expressed as mean±SD.

[5] = tested on: DSS induced mouse ulcerative colitis model; assay: Efficacy test in DSS induced mouse ulcerative colitis model; format: in vivo; settings: 100 mg/kg group, once a day, mouse DSS model, DAI range 0-4
From the text: Mice of 6-7 weeks old were randomly grouped, 6 mice per group. Purified water was provided ad libitum to the mice in a negative control group, and a 2% solution of dextran sulfate sodium (DSS) was provided ad libitum to the mice in other groups, for 7 consecutive days. During the modeling, medication was given according to the groups, once a day for 7 days (the treatment groups and the mouse numbers can be adjusted according to the specific situation). Within 8-10 days later, the DSS-containing water was replaced with purified water, provided ad libitum to the mice. The normal administration continued for 3 days.
From the first day of administration, the general conditions such as metal state, eating, drinking and activities of the mice were respectively observed every day, the mice were weighed every day, and the animal stools were collected, evaluated for their traits and subjected to the occult blood test. The disease activity index (DAI) of experimental animals within 1-10 days were comprehensively assessed.
Scoring was performed according to the above-mentioned standards. The disease activity index (DAI) of each mouse was obtained by summing the scores of weight loss, stool trait and occult blood condition, to evaluate the disease activity. DAI=(score of weight loss+score of stool trait+score of bloody stool)/3, ranging from 0-4.
The experimental data was processed statistically, and the data are all expressed as mean±SD or mean±SME. The SPSS13.0 software was used for statistical analysis, and the differences among the groups were compared with t test (equal variance) or t′ test (unequal variance).

JAK2, sequence (O60674 whole entry): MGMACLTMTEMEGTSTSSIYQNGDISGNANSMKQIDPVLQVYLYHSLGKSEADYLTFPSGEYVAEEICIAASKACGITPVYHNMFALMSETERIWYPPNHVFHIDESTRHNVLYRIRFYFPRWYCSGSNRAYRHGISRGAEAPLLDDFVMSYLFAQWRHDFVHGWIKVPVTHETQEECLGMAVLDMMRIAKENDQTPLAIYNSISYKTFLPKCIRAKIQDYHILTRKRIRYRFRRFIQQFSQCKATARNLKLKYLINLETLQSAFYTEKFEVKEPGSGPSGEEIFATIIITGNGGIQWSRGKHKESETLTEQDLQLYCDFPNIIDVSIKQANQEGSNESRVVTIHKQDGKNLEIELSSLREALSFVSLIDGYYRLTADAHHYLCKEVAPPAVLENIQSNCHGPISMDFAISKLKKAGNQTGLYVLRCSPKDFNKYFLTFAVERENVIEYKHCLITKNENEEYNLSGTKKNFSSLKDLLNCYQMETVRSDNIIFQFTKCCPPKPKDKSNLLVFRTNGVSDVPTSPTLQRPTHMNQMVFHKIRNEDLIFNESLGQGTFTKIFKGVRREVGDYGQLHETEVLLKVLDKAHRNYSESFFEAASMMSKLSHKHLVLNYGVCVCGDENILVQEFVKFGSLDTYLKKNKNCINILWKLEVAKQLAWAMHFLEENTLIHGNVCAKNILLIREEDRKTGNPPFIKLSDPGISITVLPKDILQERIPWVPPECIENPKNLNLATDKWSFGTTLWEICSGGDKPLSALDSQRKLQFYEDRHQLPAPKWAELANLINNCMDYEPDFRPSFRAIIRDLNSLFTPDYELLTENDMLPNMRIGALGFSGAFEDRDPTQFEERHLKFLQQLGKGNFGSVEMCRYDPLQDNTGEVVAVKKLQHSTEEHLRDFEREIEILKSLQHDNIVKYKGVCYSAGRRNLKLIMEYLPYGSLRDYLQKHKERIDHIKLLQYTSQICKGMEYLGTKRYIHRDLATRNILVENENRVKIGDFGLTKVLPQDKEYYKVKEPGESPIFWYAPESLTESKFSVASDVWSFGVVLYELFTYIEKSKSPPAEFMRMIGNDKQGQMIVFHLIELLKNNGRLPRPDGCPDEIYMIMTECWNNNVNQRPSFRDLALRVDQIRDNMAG
JAK1, sequence (P23458 whole entry): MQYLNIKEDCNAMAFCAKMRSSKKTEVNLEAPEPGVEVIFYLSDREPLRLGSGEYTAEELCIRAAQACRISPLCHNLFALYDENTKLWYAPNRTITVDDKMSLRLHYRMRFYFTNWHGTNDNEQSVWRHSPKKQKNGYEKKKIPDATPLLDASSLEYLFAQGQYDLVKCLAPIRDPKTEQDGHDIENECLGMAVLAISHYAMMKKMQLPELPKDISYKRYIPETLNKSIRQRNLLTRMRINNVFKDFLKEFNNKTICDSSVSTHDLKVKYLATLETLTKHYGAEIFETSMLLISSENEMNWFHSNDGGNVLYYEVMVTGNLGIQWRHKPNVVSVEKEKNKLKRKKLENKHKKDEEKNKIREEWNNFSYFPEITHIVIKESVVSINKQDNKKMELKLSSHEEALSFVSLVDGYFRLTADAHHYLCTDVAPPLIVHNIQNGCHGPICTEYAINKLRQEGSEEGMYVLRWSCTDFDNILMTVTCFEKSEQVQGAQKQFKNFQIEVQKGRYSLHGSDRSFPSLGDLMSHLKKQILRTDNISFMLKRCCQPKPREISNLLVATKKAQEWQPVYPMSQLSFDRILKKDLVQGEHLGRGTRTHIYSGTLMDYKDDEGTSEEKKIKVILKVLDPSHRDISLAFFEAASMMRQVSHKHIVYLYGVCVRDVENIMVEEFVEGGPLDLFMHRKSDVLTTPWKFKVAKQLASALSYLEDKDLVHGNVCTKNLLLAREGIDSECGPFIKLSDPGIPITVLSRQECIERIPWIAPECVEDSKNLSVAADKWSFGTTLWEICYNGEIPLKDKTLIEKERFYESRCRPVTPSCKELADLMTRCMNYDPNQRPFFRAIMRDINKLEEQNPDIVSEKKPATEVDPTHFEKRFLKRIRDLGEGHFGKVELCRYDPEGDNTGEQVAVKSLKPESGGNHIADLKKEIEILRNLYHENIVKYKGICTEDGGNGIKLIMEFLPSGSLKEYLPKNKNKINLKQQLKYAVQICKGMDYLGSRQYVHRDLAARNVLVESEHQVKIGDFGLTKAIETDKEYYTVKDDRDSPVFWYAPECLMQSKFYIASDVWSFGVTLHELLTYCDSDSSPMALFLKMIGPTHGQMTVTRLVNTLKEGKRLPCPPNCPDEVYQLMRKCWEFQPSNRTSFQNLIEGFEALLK

SMILES | pIC50 [1] | pIC50 [2] | pIC50 [3] | colon weight-length ratio ([4]; colon weight (g)/length (cm) ratio×100, model group G2 14.6±5.1) | rat colon ulcer area ([4]; model group G2 1.54±2.00) | DAI score on day 8 [5] | activity in inhibiting the JAK1 kinase compared with Tofacitinib (in words) [1]
CNC(=O)c1cnc2[nH]ccc2c1NN1CCC[C@H](C(=O)NCC(F)F)C1 [Example 22, (S)-4-((3-((2,2-difluoroethyl)carbamoyl)piperidin-1-yl)amino)-N-methyl-1H-7-pyrrolo[2,3-b]pyridine-5-carboxamide] | 7.44 | 6.86 | 6.99 |  |  |  | 
NC(=O)c1cnc2[nH]ccc2c1NN1CCC2(CCNC2=O)CC1 [Example 14, 4-(1-keto-2,8-diazaspiro[4.5]decane-8-amino)-1H-7-azaindole-5-carboxamide] | 7.11 |  |  |  |  |  | 
NC(=O)c1cnc2[nH]ccc2c1NN1CCC[C@@H](C(=O)NCC(F)F)C1 [Example 4, (R)-4-(3-(2,2-difluoroethylcarbamoyl)piperidine-1-amino)-1H-7-azaindole-5-carboxamide] | 7.46 | 6.28 | 6.65 |  |  |  | 
NC(=O)c1cnc2[nH]ccc2c1NN1C2CCC1COC2 [Example 10, 4-((3-oxa-8-azabicyclo[3.2.1]octan-8-yl)amino)-1H-7-azaindole-5-carboxamide] | 7.28 |  |  |  |  |  | 
CC[C@@H]1CN(C(=O)NCC(F)(F)F)C[C@@H]1c1cnc2cnc3[nH]ccc3n12 [ABT494, reference compound] |  |  |  | 13.4±5.2 | 1.37±1.72 |  | 
Nc1ccc(O)c(C(=O)O)c1 [mesalazine, reference compound] |  |  |  |  |  | 3.5 | 

Now from value to compound, other results behind:

pIC50 [1] | pIC50 [2] | pIC50 [3] | SMILES | colon weight-length ratio ([4]; colon weight (g)/length (cm) ratio×100, model group G2 14.6±5.1) | rat colon ulcer area ([4]; model group G2 1.54±2.00) | DAI score on day 8 [5] | activity in inhibiting the JAK1 kinase compared with Tofacitinib (in words) [1]
8.69 | 7.33 | 8.06 | CCOC(=O)[C@H]1CCCN(Nc2c(C(N)=O)cnc3[nH]ccc23)C1 [Example 8] |  |  |  | 
7.93 | 6.68 | 7.81 | NC(=O)c1cnc2[nH]ccc2c1NN1[C@@H]2CC[C@H]1C[C@@H](O)C2 [Example 11, 4-((3-hydroxyl-8-azabicyclo[3.2.1]octan-8-yl)amino)-1H-7-azaindole-5-carboxamide] |  |  |  | 
8.97 | 7.35 | 7.66 | NC(=O)c1cnc2[nH]ccc2c1NN1CCC[C@H](C(=O)NC2CC2)C1 [Example 6, (S)-4-(3-(cyclopropylcarbamoyl)piperidine-1-amino)-1H-7-azaindole-5-carboxamide] |  |  |  | 
7.76 | 6.53 | 6.98 | CN(c1ccnc2[nH]ccc12)N1CCCC(C(=O)NCC(F)(F)F)C1 (stereo not shown) [WO2016116025 WX15, reference compound] |  |  |  | 
7.71 | 6.90 | 7.16 | CN(c1ccnc2[nH]ccc12)N1CCCC(C(=O)NCC#N)C1 (stereo not shown) [WO2016116025 WX14, reference compound] |  |  |  | 
9.18 | 7.37 | 8.11 | NC(=O)c1cnc2[nH]ccc2c1NN1CCC(C(=O)NCC(F)(F)F)C1 (stereo not shown) [Example 9] |  |  |  | higher activity in inhibiting the JAK1 kinase than the positive drug control Tofacitinib
8.94 | 7.39 | 8.05 | CC1CCC(C(=O)NCC(F)(F)F)CN1Nc1c(C(N)=O)cnc2[nH]ccc12 (stereo not shown) [Example 16, 4-(2-methyl-5-(2,2,2-trifluoroethylcarbamoyl)piperidine-1-amino)-1H-7-azaindole-5-carboxamide] |  |  |  | 
7.62 | 6.45 | 7.67 | NC(=O)c1cnc2[nH]ccc2c1NN1CCC(C(=O)NCC(F)(F)F)CC1 [Example 19, 4-(4-(2,2,2-trifluoroethylcarbamoyl)piperidine-1-amino)-1H-7-azaindole-5-carboxamide] |  |  |  | 
9.19 | 7.73 | 8.18 | CNC(=O)c1cnc2[nH]ccc2c1NN1CCC[C@H](C(=O)NCC(F)(F)F)C1 [Example 23] |  |  |  | higher activity in inhibiting the JAK1 kinase than the positive drug control Tofacitinib
